Laboratory results: ChEMBL document CHEMBL1201862, “PubChem BioAssay data set” (2004)
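Cultured in 96-well plates, cells were exposed to test compound for 48 hours across five concentrations. GI50 is the concentration that inhibits growth by half.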 The source made the active and inactive calls. Rule as the data show it: active = GI50 up to about 1.1 µM and inactive = higher.

Experiments:
Test in all cases: NCI anticancer screen, dose series, 48 h
DLD-1 = tested on: DLD-1
DMS-114 = tested on: DMS-114
DMS-273 = tested on: DMS-273
HOP-18 = tested on: HOP-18
LXFL 529 = tested on: LXFL 529
M19-MEL = tested on: M19-MEL
RXF 631 = tested on: RXF 631
XF498 = tested on: XF498
KM-20L2 = tested on: KM-20L2

Measured: GI50

Cn1c(=O)c2nc3sc4ccccc4c(=N)n3c2n(C)c1=O
inactive: DLD-1 > 100 µM | DMS-114 > 100 µM | DMS-273 > 100 µM | HOP-18 > 100 µM | LXFL 529 > 100 µM | M19-MEL > 100 µM | RXF 631 > 100 µM | XF498 > 100 µM

COc1ccc2c(c1)CCc1c(C(C)=O)c3ccccc3n1C2
inactive: DLD-1 42.4 µM | DMS-114 31.7 µM | DMS-273 33 µM | HOP-18 58.6 µM | LXFL 529 12.1 µM | M19-MEL 57.5 µM | RXF 631 42.1 µM | XF498 12.9 µM

CC1=C(C(=O)NCc2ccccc2)C(c2ccccc2[N+](=O)[O-])C(C(=O)NCc2ccccc2)=C(C)N1
inactive: DLD-1 6.73 µM | DMS-114 12 µM | DMS-273 10.6 µM | HOP-18 20.3 µM | KM-20L2 16.5 µM | LXFL 529 10.7 µM | M19-MEL 11.4 µM | RXF 631 15.4 µM | XF498 18 µM

C#CCn1c(=O)[nH]c(=O)c2cccnc21
inactive: DLD-1 > 100 µM | DMS-114 > 10 µM | DMS-273 > 100 µM | HOP-18 63.5 µM | KM-20L2 > 100 µM | LXFL 529 > 100 µM | RXF 631 > 100 µM | XF498 > 100 µM

O=C(/C=C/c1ccccc1O)C(c1ccccc1)c1ccccc1
inactive: DLD-1 > 100 µM | DMS-114 63.2 µM | DMS-273 > 100 µM | HOP-18 > 100 µM | KM-20L2 > 100 µM | LXFL 529 > 100 µM | M19-MEL > 100 µM | RXF 631 > 100 µM | XF498 > 100 µM

CS(=O)(=O)C1S(=O)(=O)OCCOS1(=O)=O
inactive: DLD-1 > 100 µM | DMS-114 > 100 µM | DMS-273 > 100 µM | HOP-18 73.6 µM | KM-20L2 > 100 µM | LXFL 529 > 100 µM | M19-MEL > 100 µM | RXF 631 > 100 µM | XF498 > 100 µM

CC#CCC1CCC(OCC)=CC1=O (configuration not stated)
inactive: DLD-1 > 100 µM | DMS-114 > 100 µM | DMS-273 > 100 µM | HOP-18 > 100 µM | KM-20L2 > 100 µM | LXFL 529 > 100 µM | M19-MEL > 100 µM | RXF 631 > 100 µM | XF498 > 100 µM

Cc1cn(C2CC(O)C(COC(=O)c3ccccc3)O2)c(=O)[nH]c1=O (configuration not stated)
inactive: DLD-1 > 100 µM | DMS-273 > 100 µM | HOP-18 > 100 µM | KM-20L2 > 100 µM | LXFL 529 > 100 µM | M19-MEL > 100 µM | RXF 631 > 100 µM | XF498 > 100 µM

CC(=O)n1cc(CC(C)O)c(=O)[nH]c1=O (configuration not stated)
inactive: DLD-1 > 100 µM | DMS-114 > 100 µM | DMS-273 > 100 µM | HOP-18 > 100 µM | KM-20L2 > 100 µM | LXFL 529 > 100 µM | M19-MEL > 100 µM | RXF 631 > 100 µM | XF498 > 100 µM
